Laboratory results taken from patent US12059422B2 (MEI Pharma, Inc., priority 2011, dated 2024).

Target: T1, PI3Kβ (Homo sapiens, UniProt P42338)
T1 construct: endogenous in cells; host or cells: PC-3 (ATCC #CRL-1435)
Assay: ELISA assay for PI3Kβ: in-cell ELISA, phosphorylation of AKT (Ser473) in PC-3 cells
Format: cell-based
Settings: for IC50: cellular, pAKT (Ser473), PC-3 cells, LPA stimulation, read-out: IC50 p110β; for α/β ratio: ratio of cellular IC50 values, Table 2
Description: Cellular PI3Kβ activity was determined by measuring the phosphorylation of AKT (Ser473) using an in-cell ELISA assay. PC-3 (prostate carcinoma) cells were obtained from ATCC (ATCC #CRL-1435). Growth medium was DMEM (CellGro #CV-10-013-CV) supplemented with 10% fetal bovine serum, 100 IU/mL penicillin, 100 μg/mL streptomycin, and 1×MEM non-essential amino acids. Phosphate buffered saline (PBS) contained 2.7 M NaCl, 54 mM KCl, 86 mM […] (dibasic, anhydrous), 28 mM […] (monobasic, anhydrous), pH 7.2, 10× stimulation mixture contained 50 μM LPA (Cayman #62215) diluted in serum-free DMEM medium (CellGro #CV-10-013-CV). Compounds for testing were dissolved and serially diluted in 100% DMSO (total of 10 concentrations), then diluted in serum-free DMEM to 2× final assay concentration. 2× fixative solution contained 8% formaldehyde (Amresco #M134) diluted in PBS. Permeabilization solution contained PBS supplemented with 0.1% Triton X-100. Blocking buffer was obtained from LiCor (LiCor #927-40000). Wash buffer contained PBS supplemented with 0.1% Tween-20. Primary antibody solution was rabbit anti-pAKT^S473 monoclonal antibody (Cell Signaling #4060) and mouse anti-total S6 (Santa Cruz #74459) diluted 1:500 and 1:2000, respectively, in blocking buffer. Secondary antibody solution was IRDye 800CW-conjugated goat anti-rabbit IgG (LiCor #926-32211) and IRDye 680LT-conjugated goat anti-mouse IgG (LiCor #926-68020) diluted 1:2000 and 1:1000, respectively, in blocking buffer.
PC-3 cells were subcultured in growth medium and seeded into flat, clear bottom, 96-well plates (Corning #3904) at 16000 cells/well, then incubated overnight in a 37° C., 5% CO2 incubator. Growth medium in plates was replaced with 100 μL/well serum-free DMEM and incubated overnight in a 37° C., 5% CO2 incubator. 50 μL/well of fresh serum-free DMEM was added to plates. Compound treatment was performed by adding 50 μL/well of 2× compound mixture to plates and incubating for 2 hrs at 37° C., 5% CO2, after which 11 μL/well of 10× stimulation mixture was added and plates were incubated for 10 min at 37° C., 5% CO2. Fixation was performed by adding 110 μL/well of 2× fixative solution to plates and incubating for 20 min at room temperature. Permeabilization was performed by replacing fixation solution with 150 μL/well permeabilization solution and incubating for 10 min at room temperature. Permeabilization was repeated (for a total of 2 times). Permeabilization solution was replaced with 100 μL/well blocking buffer and plates were incubated for 1 hr at room temperature, after which 100 μL/well of primary antibody solution was added and plates were incubated overnight at 4° C. Plates were washed with wash buffer, after which 100 μL/well of secondary antibody solution was added to the plates and incubated in the dark for 1 hr at room temperature. Plates were washed with wash buffer, followed by awash with PBS. After completely removing PBS, plates were scanned on the Licor Odyssey Imager. Images quantified using Licor Odyssey application software. IC50 values were determined by curve fitting using a Collaborative Drug Discovery database (www.collaborativedrug.com).

T1 sequence (P42338 whole entry): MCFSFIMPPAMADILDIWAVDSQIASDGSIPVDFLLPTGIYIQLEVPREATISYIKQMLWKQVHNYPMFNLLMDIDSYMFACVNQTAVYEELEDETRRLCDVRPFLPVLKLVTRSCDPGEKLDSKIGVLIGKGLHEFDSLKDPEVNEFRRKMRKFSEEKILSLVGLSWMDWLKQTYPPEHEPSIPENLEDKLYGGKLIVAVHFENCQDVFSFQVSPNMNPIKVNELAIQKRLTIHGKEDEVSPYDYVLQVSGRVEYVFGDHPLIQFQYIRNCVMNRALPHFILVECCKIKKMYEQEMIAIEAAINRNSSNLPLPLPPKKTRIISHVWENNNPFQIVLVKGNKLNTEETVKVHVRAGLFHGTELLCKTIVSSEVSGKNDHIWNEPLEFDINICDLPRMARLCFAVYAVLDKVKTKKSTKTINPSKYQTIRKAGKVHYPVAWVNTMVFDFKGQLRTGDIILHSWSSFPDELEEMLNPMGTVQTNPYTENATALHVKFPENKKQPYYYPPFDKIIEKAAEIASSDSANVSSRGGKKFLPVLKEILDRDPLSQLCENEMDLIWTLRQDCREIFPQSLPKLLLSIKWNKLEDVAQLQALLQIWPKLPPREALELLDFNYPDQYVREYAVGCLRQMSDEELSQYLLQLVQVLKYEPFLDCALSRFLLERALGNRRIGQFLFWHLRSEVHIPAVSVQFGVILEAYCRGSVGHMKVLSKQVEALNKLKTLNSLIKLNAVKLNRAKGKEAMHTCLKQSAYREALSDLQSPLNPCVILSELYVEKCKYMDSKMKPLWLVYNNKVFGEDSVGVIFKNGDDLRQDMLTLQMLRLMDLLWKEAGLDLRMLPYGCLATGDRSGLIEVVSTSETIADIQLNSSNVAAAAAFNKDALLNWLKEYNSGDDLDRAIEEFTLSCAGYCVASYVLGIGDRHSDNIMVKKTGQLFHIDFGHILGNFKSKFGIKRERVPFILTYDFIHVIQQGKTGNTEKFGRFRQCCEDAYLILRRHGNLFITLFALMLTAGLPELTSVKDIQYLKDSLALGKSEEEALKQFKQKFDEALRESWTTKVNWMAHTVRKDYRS
T1 sequence (P27986 whole entry partner): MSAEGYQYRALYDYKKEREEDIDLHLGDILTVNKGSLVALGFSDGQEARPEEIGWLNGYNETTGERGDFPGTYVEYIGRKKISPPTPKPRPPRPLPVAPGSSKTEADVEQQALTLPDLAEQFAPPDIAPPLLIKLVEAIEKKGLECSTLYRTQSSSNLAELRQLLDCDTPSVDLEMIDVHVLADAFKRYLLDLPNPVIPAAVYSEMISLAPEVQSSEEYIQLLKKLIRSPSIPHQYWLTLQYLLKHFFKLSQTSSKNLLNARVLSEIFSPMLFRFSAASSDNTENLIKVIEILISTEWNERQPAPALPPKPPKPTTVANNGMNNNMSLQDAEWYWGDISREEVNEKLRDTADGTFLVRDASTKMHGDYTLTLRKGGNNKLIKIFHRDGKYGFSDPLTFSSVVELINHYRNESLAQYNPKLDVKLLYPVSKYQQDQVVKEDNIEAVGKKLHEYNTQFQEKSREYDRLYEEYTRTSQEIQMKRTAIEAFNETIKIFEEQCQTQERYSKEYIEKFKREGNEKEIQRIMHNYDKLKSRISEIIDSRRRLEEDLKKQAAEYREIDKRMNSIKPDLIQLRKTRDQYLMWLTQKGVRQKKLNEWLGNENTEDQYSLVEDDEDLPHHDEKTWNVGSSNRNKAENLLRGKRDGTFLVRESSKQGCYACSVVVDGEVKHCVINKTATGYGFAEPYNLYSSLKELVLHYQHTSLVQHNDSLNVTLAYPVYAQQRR

Structure (SMILES)	IC50 [µM]	α/β ratio
CC(C)(Cc1ccccc1Cl)Nc1nc(N2CCOCC2)nc(-n2c(C(F)F)nc3ccccc32)n1 [Compound A16, 4-(2-(difluoromethyl)-1H-benzo[d]imidazol-1-yl)-N-(1-(2-chlorophenyl)-2-methylpropan-2-yl)-6-morpholino-1,3,5-triazin-2-amine]	≤ 0.1	B’
CN(C)CCCc1ccccc1CC(C)(C)Nc1nc(N2CCOCC2)nc(-n2c(C(F)F)nc3ccccc32)n1 [Compound A76, 4-(2-(difluoromethyl)-1H-benzo[d]imidazol-1-yl)-N-(1-(2-(3-(dimethylamino)propyl)phenyl)-2-methylpropan-2-yl)-6-morpholino-1,3,5-triazin-2-amine]	≤ 0.1	A’
CC(C)(Cc1ccccc1F)Nc1nc(N2CCOCC2)nc(-n2c(C(F)F)nc3ccccc32)n1 [Compound A15, 4-(2-(difluoromethyl)-1H-benzo[d]imidazol-1-yl)-N-(1-(2-fluorophenyl)-2-methylpropan-2-yl)-6-morpholino-1,3,5-triazin-2-amine]	≤ 0.1	C’
COc1cc(CC(C)(C)Nc2nc(N3CCOCC3)nc(-n3c(C(F)F)nc4ccccc43)n2)ccc1F [Compound A50, 4-(2-(difluoromethyl)-1H-benzo[d]imidazol-1-yl)-N-(1-(4-fluoro-3-methoxyphenyl)-2-methylpropan-2-yl)-6-morpholino-1,3,5-triazin-2-amine]	≤ 0.1	B’
CC(C)(Cc1ccccc1-c1cccnc1F)Nc1nc(N2CCOCC2)nc(-n2c(C(F)F)nc3ccccc32)n1 [Compound A62]	≤ 0.1	A’
COc1cccc(-c2ccccc2CC(C)(C)Nc2nc(N3CCOCC3)nc(-n3c(C(F)F)nc4ccccc43)n2)c1 [Compound A66, 4-(2-(difluoromethyl)-1H-benzo[d]imidazol-1-yl)-N-(1-(3′-methoxybiphenyl-2-yl)-2-methylpropan-2-yl)-6-morpholino-1,3,5-triazin-2-amine]	0.1 to 0.2	A’
Cc1ccccc1CC(C)(C)Nc1nc(N2CCOCC2)nc(-n2c(C(F)F)nc3ccccc32)n1 [Compound A18, 4-(2-(difluoromethyl)-1H-benzo[d]imidazol-1-yl)-N-(2-methyl-1-(o-tolyl)propan-2-yl)-6-morpholino-1,3,5-triazin-2-amine]	≤ 0.1	C’
CC(C)(Cc1ccccc1-c1ccccc1Cl)Nc1nc(N2CCOCC2)nc(-n2c(C(F)F)nc3ccccc32)n1 [Compound A61, 4-(2-(difluoromethyl)-1H-benzo[d]imidazol-1-yl)-N-(1-(6′-chlorobiphenyl-2-yl)-2-methylpropan-2-yl)-6-morpholino-1,3,5-triazin-2-amine]	0.1 to 0.2	A’
CCN1CCC(c2ccccc2CC(C)(C)Nc2nc(N3CCOCC3)nc(-n3c(C(F)F)nc4ccccc43)n2)CC1 [Compound A70, 4-(2-(difluoromethyl)-1H-benzo[d]imidazol-1-yl)-N-(1-(2-(1-ethylpiperidin-4-yl)phenyl)-2-methylpropan-2-yl)-6-morpholino-1,3,5-triazin-2-amine]	≤ 0.1	A’
Cc1ccccc1-c1ccccc1CC(C)(C)Nc1nc(N2CCOCC2)nc(-n2c(C(F)F)nc3ccccc32)n1 [Compound A60, 4-(2-(difluoromethyl)-1H-benzo[d]imidazol-1-yl)-N-(2-methyl-1-(2′-methylbiphenyl-2-yl)propan-2-yl)-6-morpholino-1,3,5-triazin-2-amine]	0.2 to 0.5	A’
CC(C)(Cc1ccccc1C1CCN(S(C)(=O)=O)CC1)Nc1nc(N2CCOCC2)nc(-n2c(C(F)F)nc3ccccc32)n1 [Compound A73, 4-(2-(difluoromethyl)-1H-benzo[d]imidazol-1-yl)-N-(2-methyl-1-(2-(1-(methylsulfonyl)piperidin-4-yl)phenyl)propan-2-yl)-6-morpholino-1,3,5-triazin-2-amine]	≤ 0.1	A’
CC(C)(Cc1ccccc1-c1ccncc1)Nc1nc(N2CCOCC2)nc(-n2c(C(F)F)nc3ccccc32)n1 [Compound A33, 4-(2-(difluoromethyl)-1H-benzo[d]imidazol-1-yl)-N-(2-methyl-1-(2-(pyridin-4-yl)phenyl)propan-2-yl)-6-morpholino-1,3,5-triazin-2-amine]	≤ 0.1	
COc1cccc(CC(C)(C)Nc2nc(N3CCOCC3)nc(-n3c(C(F)F)nc4ccccc43)n2)c1 [Compound A21, 4-(2-(difluoromethyl)-1H-benzo[d]imidazol-1-yl)-N-(1-(3-methoxyphenyl)-2-methylpropan-2-yl)-6-morpholino-1,3,5-triazin-2-amine]	0.1 to 0.2	A’
CC(C)(Cc1ccc(F)cc1)Nc1nc(N2CCOCC2)nc(-n2c(C(F)F)nc3ccccc32)n1 [Compound A22, 4-(2-(difluoromethyl)-1H-benzo[d]imidazol-1-yl)-N-(1-(4-fluorophenyl)-2-methylpropan-2-yl)-6-morpholino-1,3,5-triazin-2-amine]	≤ 0.1	C’
CN1CCC(c2ccccc2CC(C)(C)Nc2nc(N3CCOCC3)nc(-n3c(C(F)F)nc4ccccc43)n2)CC1 [Compound A35, 4-(2-(difluoromethyl)-1H-benzo[d]imidazol-1-yl)-N-(2-methyl-1-(2-(1-methylpiperidin-4-yl)phenyl)propan-2-yl)-6-morpholino-1,3,5-triazin-2-amine]	≤ 0.1	A’
CC(C)(Cc1c(F)cccc1F)Nc1nc(N2CCOCC2)nc(-n2c(C(F)F)nc3ccccc32)n1 [Compound A52, 4-(2-(difluoromethyl)-1H-benzo[d]imidazol-1-yl)-N-(1-(2,6-difluorophenyl)-2-methylpropan-2-yl)-6-morpholino-1,3,5-triazin-2-amine]	≤ 0.1	C’
CN1CCC(c2ccccc2CC(C)(C)Nc2nc(N3CCOCC3)nc(-n3c(C(F)F)nc4ccccc43)n2)C1 (stereo not shown) [Compound A75, 4-(2-(difluoromethyl)-1H-benzo[d]imidazol-1-yl)-N-(2-methyl-1-(2-(1-methylpyrrolidin-3-yl)phenyl)propan-2-yl)-6-morpholino-1,3,5-triazin-2-amine]	≤ 0.1	A’
CC(C)N1CCC(c2ccccc2CC(C)(C)Nc2nc(N3CCOCC3)nc(-n3c(C(F)F)nc4ccccc43)n2)CC1 [Compound A71, 4-(2-(difluoromethyl)-1H-benzo[d]imidazol-1-yl)-N-(1-(2-(1-isopropylpiperidin-4-yl)phenyl)-2-methylpropan-2-yl)-6-morpholino-1,3,5-triazin-2-amine]	≤ 0.1	A’
CC(C)(Cc1ccccc1-c1cccc(CN2CCOCC2)c1)Nc1nc(N2CCOCC2)nc(-n2c(C(F)F)nc3ccccc32)n1 [Compound A65, 4-(2-(difluoromethyl)-1H-benzo[d]imidazol-1-yl)-N-(2-methyl-1-(3′-(morpholinomethyl)biphenyl-2-yl)propan-2-yl)-6-morpholino-1,3,5-triazin-2-amine]	≤ 0.1	A’
